Laboratory results taken from PubChem BioAssay (NCI).
“And” between values parts separate entries of the source, which are not always exact repeats. Equal entries are not always repeated.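 Briefly, cells in 96-well plates were exposed to five compound concentrations for 48 h, and endpoints were estimated by linear interpolation. GI50 marks 50% less growth. The concentration for full growth arrest is given as TGI.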

Assays:
Assay in all cases: NCI-60 cell line screen, 48 h
CCRF-CEM leukemia = tested on: CCRF-CEM leukemia
HCC-2998 colon = tested on: HCC-2998 colon
HCT-15 colon = tested on: HCT-15 colon
HL-60(TB) leukemia = tested on: HL-60(TB) leukemia
HOP-92 NSCLC = tested on: HOP-92 NSCLC
HT29 colon = tested on: HT29 colon
K-562 leukemia = tested on: K-562 leukemia
M14 melanoma = tested on: M14 melanoma
OVCAR-4 ovarian = tested on: OVCAR-4 ovarian
SN12C renal = tested on: SN12C renal

| SMILES | GI50 (CCRF-CEM leukemia) | TGI (CCRF-CEM leukemia) | GI50 (HCC-2998 colon) | TGI (HCC-2998 colon) | GI50 (HCT-15 colon) | TGI (HCT-15 colon) | GI50 (HL-60(TB) leukemia) | TGI (HL-60(TB) leukemia) | GI50 (HOP-92 NSCLC) | TGI (HOP-92 NSCLC) | GI50 (HT29 colon) | TGI (HT29 colon) | GI50 (K-562 leukemia) | TGI (K-562 leukemia) | GI50 (M14 melanoma) | TGI (M14 melanoma) | GI50 (OVCAR-4 ovarian) | TGI (OVCAR-4 ovarian) | GI50 (SN12C renal) | TGI (SN12C renal) |
| --- | --- | --- | --- | --- | --- | --- | --- | --- | --- | --- | --- | --- | --- | --- | --- | --- | --- | --- | --- | --- |
| CN1CCN(Cc2ccc(NC(=O)c3cncc(C#Cc4cnn5ccccc45)c3)cc2C(F)(F)F)CC1 | 0.202 µM | 1.67 µM | 0.902 µM | 3.07 µM | 0.818 µM | 3.66 µM | 0.25 µM | 1.15 µM | 0.633 µM | 2.98 µM | 0.811 µM | 4.89 µM | 0.005 µM | 3.16 µM | 0.576 µM | 1.39 µM | 0.445 µM | 2.95 µM | 0.825 µM | 3.85 µM |
| C=C1C(=O)OC2CC3(C)CCCC(C)C3=CC12 (stereo not drawn) | – | 4.53 µM | – | 16.2 µM | – | 5.08 µM | – | 2.59 µM | – | 10.3 µM | – | 14.2 µM | – | 6.61 µM | – | 16.1 µM | – | 20.2 µM | – | 12.2 µM |
| COC(=O)c1ccc2c(c1)c1c(C)c3ccncc3c(C)c1n2C | 0.518 µM | > 100 µM | 3.86 µM | > 100 µM | 0.215 µM | 21.2 µM | 1.13 µM | 39.4 µM | 0.378 µM | > 100 µM | 0.133 µM | > 100 µM | 0.2 µM | > 100 µM | 0.453 µM | 36.3 µM | 0.396 µM | 30.8 µM | 0.214 µM | > 100 µM |
| COCOCC[C@@H]1CC=CC(NC(=O)OCc2ccccc2)C1/C=C/C(=O)CCC1OCCO1 (stereo partly drawn) | – | 75.7 µM | – | > 100 µM | – | 32.2 µM | – | 51 µM | – | > 100 µM | – | > 100 µM | – | > 100 µM | – | 88.4 µM | – | > 74.4 µM | – | > 68.5 µM |
| COC(=O)C(C(=O)C(=O)Nc1ccc(OC)cc1[N+](=O)[O-])c1nc2cc(C)c(C)cc2[nH]c1=O (stereo not drawn) | – | > 100 µM | – | > 100 µM | – | > 100 µM | – | > 100 µM | – | > 100 µM | – | > 100 µM | – | > 100 µM | – | > 100 µM | – | > 100 µM | – | > 100 µM |
| CC[C@@H](C)Nc1cc(C(=O)NC2CC3CCC(C2)N3c2ccc(C(=O)C3CC3)cn2)c(C)cc1C(N)=O (stereo partly drawn) | 0.0482 µM | > 100 µM | 0.0395 µM | 13.5 µM | 0.0317 µM | > 100 µM | 0.0329 µM | 88.9 µM | 0.0422 µM | 0.599 µM | 0.0111 µM | 15.9 µM | 0.0378 µM | > 100 µM | 0.0489 µM | > 84 µM | 1.31 µM | > 100 µM | 0.052 µM | > 100 µM |
| CCc1nc2cc(/C=C/C(=O)NO)ccc2c(=O)n1CCc1ccc(F)cc1 | 1.39 µM | > 100 µM | 1.59 µM | 3.95 µM | 1.57 µM | 39.6 µM | 4.59 µM | > 100 µM | 2.45 µM | 6.28 µM | 1.49 µM | 9.06 µM | 2.37 µM | > 100 µM | 1.65 µM | 3.6 µM | 2.34 µM | > 100 µM | – | – |
| C1CCN2CC3CCCN4CCCC(C2C1)C34 (stereo not drawn) | – | > 100 µM | – | > 100 µM | – | > 100 µM | – | > 100 µM | – | > 100 µM | – | > 100 µM | – | > 100 µM | – | > 100 µM | > 100 µM and 24.7 µM | > 100 µM | – | > 100 µM |
| CC(C)(C)c1ccc(O)c(CN(Cc2cc(C(C)(C)C)ccc2O)C2CCCCC2)c1 | – | 99.9 µM | – | 4.48 µM | – | 36.2 µM | 13.9 µM | 33.3 µM | – | 23.9 µM | – | 37.1 µM | – | 27.9 µM | – | 28.4 µM | – | 50.3 µM | – | 42.1 µM |
| Cc1nc(Nc2ccccc2)sc1C(=O)CC(=O)C(=O)NC12CC3CC(CC(C3)C1)C2 | – | > 100 µM | – | > 100 µM | – | > 100 µM | – | > 100 µM | – | 89.4 µM | – | > 100 µM | – | > 100 µM | – | > 100 µM | – | > 100 µM | – | > 100 µM |
| NC(=Nc1nc(-c2ccccn2)cc2ccccc12)c1ccccn1 | 0.00229 µM | – | – | > 100 µM | 0.000503 µM | > 19.7 µM | 0.00104 µM | 0.0598 µM and 0.251 µM | 0.0765 µM | 5.92 µM | 0.0708 µM | > 100 µM | 0.0199 µM | 5.3 µM | 0.00816 µM | 0.534 µM and 2.86 µM | 0.0798 µM | – | 0.131 µM | 22.7 µM |
| N#Cc1c(N)nc(N2CCSCC2)c(C#N)c1-c1ccc(O)cc1 | 26.4 µM | > 100 µM | 17.2 µM | 36.6 µM | 17.6 µM | 54.1 µM | 17 µM | 53.1 µM | 10.1 µM | 47.5 µM | 16.7 µM | 37.6 µM | 19.8 µM | 58.3 µM | – | – | 18 µM | 67.6 µM | 19.8 µM | 50.2 µM |
| OC1CCC[C@@H]1Sc1ccccc1 (stereo partly drawn) | – | > 100 µM | – | > 100 µM | – | > 100 µM | – | > 100 µM | – | > 100 µM | – | – | – | > 100 µM | – | > 100 µM | – | > 100 µM | – | > 100 µM |
| CC(=O)NC(CCCCN(Cc1ccccc1)C(=O)N(CCCl)N=O)C(=O)NCc1ccccc1 (stereo not drawn) | – | > 84.3 µM | – | > 100 µM | – | > 100 µM | – | 65.4 µM | – | 68.6 µM | – | > 72.4 µM | – | > 89.4 µM | – | > 71.5 µM | – | > 100 µM | – | > 77.8 µM |
| COc1cc(-c2ccc(NC(=O)NC3CC3)c(OC)c2)ccc1NC(=O)NC1CC1 | 4.34 µM | > 100 µM | 28 µM | > 100 µM | 1.1 µM | > 100 µM | 3.75 µM | > 100 µM | 7.66 µM | > 67.7 µM | 5.81 µM | > 100 µM | 2.45 µM | > 100 µM | > 100 µM | > 100 µM | > 100 µM | > 100 µM | 18.8 µM | > 100 µM |
| C/C=C(/C)C(=O)OC1C=C(CO)C(=O)C(OC(=O)C(C)(O)C(C)Cl)C1C(C)C (stereo not drawn) | 0.327 µM | 2.05 µM | 1.79 µM | 3.35 µM | 0.772 µM | 2.36 µM | 0.358 µM | 5.74 µM | 1.77 µM | 3.57 µM | 1.47 µM | 3.56 µM | 0.396 µM | 12.5 µM | 1.6 µM | 3.5 µM | 1.87 µM | 3.95 µM | 0.731 µM | 2.11 µM |
| COC(=O)C(=O)C(C(=O)C(=O)Nc1ccc(C)cc1)c1nc2ccc(C(=O)c3ccccc3)cc2[nH]c1=O (stereo not drawn) | – | > 100 µM | – | > 100 µM | – | > 100 µM | – | > 100 µM | – | > 100 µM | – | > 100 µM | – | > 100 µM | – | – | – | > 100 µM | – | > 100 µM |
| CC1=C2[C@H](c3ccccc3)C3C=CC2(c2ccccc23)N(C(=O)C(c2ccccc2)c2ccccc2)C1=O (stereo partly drawn) | – | > 100 µM | – | > 100 µM | – | > 100 µM | – | > 100 µM | – | > 100 µM | – | > 100 µM | – | > 100 µM | – | > 100 µM | – | > 100 µM | – | > 100 µM |
| COC(=O)C(=O)C(C(=O)C=C(C)C)C(=O)C(=O)Nc1nc2ccc([N+](=O)[O-])cc2s1 (stereo not drawn) | – | > 100 µM | – | > 100 µM | – | > 100 µM | – | > 100 µM | – | 74.2 µM | – | > 100 µM | – | > 100 µM | – | > 100 µM | – | > 100 µM | – | > 100 µM |
| COc1cc2ncn(-c3cc(OCc4ccccc4C(F)(F)F)c(C(C)=O)s3)c2cc1OC | > 25 µM | > 25 µM | > 25 µM | > 25 µM | > 25 µM | > 25 µM | > 25 µM | > 25 µM | 10.8 µM | > 25 µM | > 25 µM | > 25 µM | > 25 µM | > 25 µM | > 25 µM | > 25 µM | > 25 µM | > 25 µM | > 21.7 µM | > 25 µM |
| Cc1cc(NNC(=O)c2ccccc2O)nc(Nc2nc3ccccc3o2)n1 | – | 11.8 µM | 2.13 µM | 13.8 µM | 1.17 µM | > 39.5 µM | 1.13 µM | 6.99 µM | 1.11 µM | 13.9 µM | 3.31 µM | 15.4 µM | 2.31 µM | > 66.2 µM | 0.854 µM | 3.44 µM | 0.79 µM | 7.06 µM | 1.62 µM | 19.1 µM |
| COc1ccc(NC(=O)CCc2cc(C(C)(C)C)n[nH]2)cc1 | – | > 100 µM | – | > 100 µM | – | > 100 µM | – | > 100 µM | – | > 100 µM | – | > 100 µM | – | > 100 µM | – | > 100 µM | – | – | – | > 100 µM |
| COc1ccc(/C=C2\CC(C)CC3C2=NN(c2ccccc2)C3c2ccc(OC)c(OC)c2)cc1OC (stereo not drawn) | 4.02 µM | > 100 µM | 1.69 µM | 3.13 µM | 1.98 µM | 4.38 µM | 2.76 µM | 8.7 µM | 5.32 µM | > 100 µM | 3.18 µM | 16.1 µM | 1.85 µM | 5.4 µM | – | – | 3.65 µM | > 100 µM | 3.45 µM | 14.5 µM |
| CN(O)C(=S)c1ccccc1 | – | 4.99 µM | – | 44 µM | – | 37.6 µM | – | 7.04 µM | – | > 100 µM | – | – | – | > 100 µM | – | > 38.7 µM | – | 19.6 µM | – | > 55.4 µM |
